The results in this text go back to patent US11970523B2 (priority 2018, dated 2024).

The assay is described as follows: Weight gain slowing test. The assay is classed as in vivo, Male C57bl/6 mice. Conditions: high-fat fed mice, 50 nmol/kg every day for 56 days. As to the method:
Male C57bl/6 mice were fed with high-fat feed for 4 weeks. The mice with body weights greater than 30 g were selected for the test, and were randomly divided into 26 groups, 8 mice per group. […] Fasting body weights of each group of mice on Day 1 and Day 56 were tested, and the average body weight change of each group of mice was examined.
Male C57bl/6 mice were fed with high-fat feed for 4 weeks. The mice with body weights greater than 30 g were selected for the test, and were randomly divided into 7 groups, 8 mice per group. […] Fasting body weights of each group of mice on Day 1 and Day 56 were tested, and the average body weight change of each group of mice was examined.
Male C57bl/6 mice were fed with high-fat feed for 4 weeks. The mice with body weights greater than 30 g were selected for the test, and were randomly divided into 8 groups, 8 mice per group. […] Fasting body weights of each group of mice on Day 1 and Day 56 were tested, and the average body weight change of each group of mice was examined.

Regarding Oxyntomodulin [OXM, reference compound], the “fasting body weight, Day 1” value (Table 3, in g (unit assumed)) was 32.5 ± 0.7; the “fasting body weight, Day 1” value (Table 5, in g (unit assumed)) amounted to 31.0 ± 0.8; the “fasting body weight, Day 1” value (Table 7, in g (unit assumed)) amounted to 30.5 ± 0.6; the “fasting body weight, Day 1” value (Table 9, in g (unit assumed)) is recorded as 31.9 ± 0.6; the “fasting body weight, Day 1” value (Table 11, in g (unit assumed)) came to 32.7. Also, the “fasting body weight, Day 56” value (Table 3, in g (unit assumed)) was found to be 40.3 ± 1.3; the “fasting body weight, Day 56” value (Table 5, in g (unit assumed)) turned out to be 41.0 ± 0.7; the “fasting body weight, Day 56” value (Table 7, in g (unit assumed)) amounted to 39.6 ± 1.3; the “fasting body weight, Day 56” value (Table 9, in g (unit assumed)) stood at 42.1 ± 1.3; the “fasting body weight, Day 56” value (Table 11) is 43.3±.
